Measurements as given in US20220133894A1, “BISPHOSPHONATE-LINKED COMPOUNDS” (OREGON HEALTH & SCIENCE UNIVERSITY, priority 2019, published 2022).

How the values were obtained:
VCaP cells = experiment: SRB growth inhibition assay, VCaP; type: cell-based, human; conditions: 10 μM enzalutamide, 10 μM KBU2046 added to control or enzalutamide treated cells, 72 hours
Experimental: (§1) LNCaP or VCaP cells cultured in hormone free media were treated with R1881 (R), KBU2046 (46) and/or enzalutamide (E). (FIGS. 3A and 3B) Effects on AR-responsive gene expression. PSA expression was measured by qRT/PCR, normalized to GAPDH and expressed as a percent of control cells (N=3 replicates); * denotes P<0.05 for groups separated by bar. (FIGS. 3C and 3D) Effects on cell growth. Three day growth assays were performed. Data are the number of viable cells, expressed as % of control (N=3 replicates); * P<0.05 compared to control. (E) Effects on AR activation. Western blots of nuclear (N) and cytoplasmic (C) preparations of cell extracts were probed for AR, laminin 1 or α-tubulin. (FIGS. 3F and 3G) Effects on tumor outgrowth after androgen deprivation therapy. LNCaP/AR-luc cells were implanted subcutaneously (N=6 mice/cohort) or orthotopic (N=15 mice/cohort were implanted; N=5 yielded tumors) into castrate mice, treatment with KBU2046 began as noted, and weekly IVIS imaging performed. Data are tumor size, expressed as luminescence intensity. All data are expressed as mean±SEM.
Enzalutamide mediated growth inhibition was assessed using Sulforhodamine B (SRB) growth inhibition assays, were performed as previously described (49). In brief, LNCaP and VCaP cells were pre-incubated in charcoal-striped medium for 48 hours and then seeded (1.9×10^4) in 96-well plates. […]

[1] = tested on: MDA-MB-231 human breast cancer cells; experiment: 7 day colony formation assay, chemotherapy with or without KBU2046; type: cell-based
Experimental: To assess the impact of cytotoxic chemotherapy on PCa growth kinetics seven-day soft agar colony formation assays and three-day MTT cell growth inhibition assays were performed as described by us ([…] et al., Cancer Lett 352, 179-186 (2014)). MTT assays were in replicates of N=3, and were repeated, soft agar assays were in replicates of N=2 and are presented as mean number of colonies, expressed as percent of untreated controls. For PC3-M PCa and MDA-MB-231 triple negative breast cancer cells, data are the mean±SD (N=2 replicates) number of colonies in 7 day colony formation assays. All data are expressed as the percentage of untreated control cells. Cells were treated with 10 μM KBU2046 or vehicle (CO), and the indicated concentration and type of chemotherapy.

PC3-luc cells = experiment: PCa intracardiac injection model, bone destruction by CT and survival; type: in vivo, mice; conditions: oral 150 mg KBU2046/kg daily; intraperitoneal ZA 100 μg/kg weekly; CT
MEK1/2 and ERK1/2 = experiment: Western blot of MEK1/2 and ERK1/2 phosphorylation in RANKL treated osteoclast cells; type: cell-based, mouse; conditions: 10 μM KBU2046, RANKL treated RAW 267.4 cells
[2] = tested on: prostate specific antigen (PSA); experiment: PSA expression by qRT/PCR in VCaP cells; type: cell-based, human
Experimental: Cells were cultured in media depleted of androgen and after a washout of 72 hrs were treated with the synthetic androgen R1881, KBU2046, enzalutamide and/or vehicle (control), and resultant effects upon induction of the androgen-responsive gene, prostate specific antigen (PSA) were measured (FIG. 3A).
as §1
RNA was isolated and qRT/PCR performed as previously described by us (Ding et al., J Biomol Tech 18, 321-330 (2007)). Resultant data were analyzed using the 2^−ΔΔt method (Livak et al., Methods 25, 402-408 (2001)), normalized to GAPDH, for the following primer/probe sets (ABI) PSA (Hs02576345_m1) and GAPDH (Hs99999905_m1). Assays were performed in triplicate, and were repeated.

PC3-M cells = experiment: three-day MTT cell growth assay, chemotherapy with or without KBU2046; type: cell-based, human; conditions: 10 μM KBU2046, 3 day growth assay, androgen independent PC3-M cells
Experimental: FIG. 1A depicts the effect of chemotherapy on the growth of androgen independent PC3-M PCa cells in vitro. Data are the mean±SEM (N=3 replicates) of cell viability in a 3 day growth assay in the presence of 10 μM KBU2046 or vehicle (control) treated with docetaxel or cabazitaxel. FIG. 1B depicts the effect of chemotherapy on the growth of androgen independent PCa cells in vivo. Mice received subcutaneous implants of PC3-M cells, were monitored until tumors were detectable (250 mm^3), and then treated daily with oral 80 mg KBU2046/kg (46) or vehicle (CO) and with weekly intraperitoneal docetaxel (doc) at 0 or 20 mg/kg, beginning on day 1, and tumor size measured. Data are mean±SEM, with N=20 mice per cohort.
To assess the impact of cytotoxic chemotherapy on PCa growth kinetics seven-day soft agar colony formation assays and three-day MTT cell growth inhibition assays were performed as described by us (Pavese et al., Cancer Lett 352, 179-186 (2014)). MTT assays were in replicates of N=3, and were repeated, soft agar assays were in replicates of N=2 and are presented as mean number of colonies, expressed as percent of untreated controls.

## O=C1c2ccccc2OCC1c1ccc(F)cc1 (centres unmarked) [KBU2046, 3-(4-fluorophenyl)chroman-4-one]
VCaP cells
  cell growth: no significant effect
[1]; 10 μM KBU2046, MDA-MB-231 cells, FIG. 13
  effect on activity of adriamycin: does not inhibit
[1]; 10 μM KBU2046, MDA-MB-231 cells, FIG. 15
  effect on activity of vinblastine: does not inhibit
[1]; 10 μM KBU2046, MDA-MB-231 cells, FIG. 17
  effect on activity of taxol: does not inhibit
[1]; KBU2046 co-administered, MDA-MB-231 cells
  interference upon cytotoxic action of adriamycin, taxol and vinblastine: lack of interference
PC3-luc cells
  improvement of femur bone density compared to control: 22±2.4%
  inhibition of bone destruction in the mandible compared to control: 33±4.2%
MEK1/2 and ERK1/2
  MEK1/2 and ERK1/2 phosphorylation: inhibition
[2]; VCaP cells, R1881 treated
  decrease of PSA expression in R1881 treated cells: 36%
[2]; VCaP control cells, very low baseline
  relative increase of PSA expression in control cells: 14%
PC3-M cells
  effect of KBU2046 on the ability of docetaxel or cabazitaxel to inhibit cell growth: did not affect
